Key:
[1] = for surface tension liquid-gas: Plate tensiometer; for mass density: 101.33 kPa, Liquid, Vibrating tube method
[2] = xn = mol fraction of the nth substance listed; details: 293.15 K; for mass density: 101 kPa, Liquid, Vibrating tube method

CCn1cc[n+](C)c1.COS(=O)(=O)[O-] [1-ethyl-3-methylimidazolium methylsulfate]
[1]
Details	mass density [kg/m3]	surface tension liquid-gas [mN/m]
283.15 K	1273.4	53.54
288.15 K	1270.1	53.28
293.15 K	1267	52.99
298.15 K	1262.9	52.62
303.15 K	1259.4	52.32
308.15 K	1255.8	52.03
313.15 K	1252.9	51.72
318.15 K	1249.9	51.44
323.15 K	1246.9	51.07
328.15 K	1243.5	50.68
333.15 K	1240.3	50.41

CCn1cc[n+](C)c1.COS(=O)(=O)[O-] [1-ethyl-3-methylimidazolium methylsulfate] + CCCCO
[2], Ring tensiometer
Details	surface tension liquid-gas [mN/m]
x1 = 0.032	23.96
x1 = 0.071	24.3
x1 = 0.1	24.39
x1 = 0.2306	25.51
x1 = 0.3	26.11
x1 = 0.3996	27.13
x1 = 0.4989	28.16
x1 = 0.5993	28.58
x1 = 0.695	28.61
x1 = 0.7864	33.18
x1 = 0.9206	39.12
x1 = 0.9628	43.21
x1 = 1	52.62

[2]
Details	mass density [kg/m3]
x1 = 0.032	837.1
x1 = 0.071	868.3
x1 = 0.1	890.3
x1 = 0.2306	978.5
x1 = 0.3	1017.9
x1 = 0.3996	1066.8
x1 = 0.4989	1109.3
x1 = 0.5993	1147.1
x1 = 0.695	1179.6
x1 = 0.7864	1207.2
x1 = 0.9206	1243.6
x1 = 1	1262.9

CCn1cc[n+](C)c1.COS(=O)(=O)[O-] [1-ethyl-3-methylimidazolium methylsulfate] + CCO
[2], Plate tensiometer
Details	surface tension liquid-gas [mN/m]
x1 = 0.04	22.75
x1 = 0.0597	23.23
x1 = 0.08	23.62
x1 = 0.0999	24.08
x1 = 0.2	26.08
x1 = 0.3	28.59
x1 = 0.4	30.09
x1 = 0.5	32.19
x1 = 0.5998	34.22
x1 = 0.6993	38.92
x1 = 0.8005	44.18
x1 = 0.9009	49.23
x1 = 1	52.62

[2]
Details	mass density [kg/m3]
x1 = 0.04	839.3
x1 = 0.0597	862.9
x1 = 0.08	885.6
x1 = 0.0999	906.5
x1 = 0.2	995.1
x1 = 0.3	1064.8
x1 = 0.4	1113.2
x1 = 0.5	1150.2
x1 = 0.5998	1179.8
x1 = 0.6993	1205.1
x1 = 0.8005	1227.1
x1 = 0.9009	1246.4
x1 = 1	1262.9

CCn1cc[n+](C)c1.COS(=O)(=O)[O-] [1-ethyl-3-methylimidazolium methylsulfate] + CO
[2], Plate tensiometer
Details	surface tension liquid-gas [mN/m]
x1 = 0.05	24.19
x1 = 0.08	25.56
x1 = 0.0995	26.19
x1 = 0.2001	30.12
x1 = 0.3024	33.16
x1 = 0.4012	37.21
x1 = 0.4971	40.02
x1 = 0.6	43.02
x1 = 0.7004	45.59
x1 = 0.8003	48.06
x1 = 0.8971	50.63
x1 = 0.9389	51.59
x1 = 1	52.62

[2]
Details	mass density [kg/m3]
x1 = 0.05	883.8
x1 = 0.08	928.9
x1 = 0.0995	957.2
x1 = 0.2001	1061.5
x1 = 0.3024	1122.2
x1 = 0.4012	1161.3
x1 = 0.4971	1189.3
x1 = 0.6	1212.1
x1 = 0.7004	1228
x1 = 0.8003	1242.3
x1 = 0.8971	1252.6
x1 = 0.9389	1256.7
x1 = 1	1262.9

CCCCO [butan-1-ol] + CCn1cc[n+](C)c1.COS(=O)(=O)[O-]
Details	surface tension liquid-gas [mN/m]
[2], Ring tensiometer, x2 = 0	23.62

Details	mass density [kg/m3]
[2], x2 = 0	809.6

CCO [ethanol] + CCn1cc[n+](C)c1.COS(=O)(=O)[O-]
Details	surface tension liquid-gas [mN/m]
[2], Plate tensiometer, x2 = 0	22

Details	mass density [kg/m3]
[2], x2 = 0	785.7

CO [methanol] + CCn1cc[n+](C)c1.COS(=O)(=O)[O-]
Details	surface tension liquid-gas [mN/m]
[2], Plate tensiometer, x2 = 0	21.8

Details	mass density [kg/m3]
[2], x2 = 0	791.2

— the NIST ThermoML archive (doi:10.1016/j.fluid.2011.03.008)
